This note sets out measurements from patent US20170362609A1, “[…] NANOPARTICLES FOR CODELIVERY OF WATER-INSOLUBLE SMALL MOLECULES AND RNAi” (Massachusetts Institute of Technology, priority 2016, published 2017).

One assay relates to 5′-GMP. Kind of assay: 5′-GMP binding with platinum species by 1HNMR.
Assay [1] has as its system BCL-2 siRNA. The experiment in a line: siRNA binding with platinum species by MALDI-TOF-MS. As to conditions: 10-fold excess of platinum. How it is done: The reaction mixture was placed in a 37° C. incubator and 10 μL of sample were removed at various time points to obtain MALDI-TOF-MS spectra (positive model).
Assay [2] deals with BCL-2 siRNA. The experiment in a line: Double-stranded siRNA binding with platinum species by AAS. As to conditions: by 3 h of incubation. How it is done: A double-stranded RNA (sense: […]-ATT; antisense: […]-[…]) was mixed with OxaPt(II) at a molar ratio of 1:10 in RNAase free water (RNA final concentration: 5 μM; Pt final concentration at 50 μM; total volume of 100 μL). […] The RNA was then isolated using a centrifugation separation device (molecular cut-off 3000 Da, spun at 10,000 rpm; Nanosep®3k, Pall Corporation, USA). Five wash cycles with RNAase free water (5×100 μL) then ensued. An aliquot of 2 μL from each sample was obtained for optical density (OD) measurements in order to quantify the concentration of RNA in the original sample, using a NanoDrop reader. The remainder of each sample was diluted in 3% HNO3 for Pt content measurement via AAS. The experiments were performed in triplicate and data are presented such that the concentration of Pt-RNA adducts at each time point are expressed as “μmol Pt/μmol RNA”. Analogous methods were employed to obtain similar values for the numbers of Pt-RNA adducts formed by the reaction of siRNA with OxaPt(IV), CisPt(II) or CisPt(IV) at similar time points.
MALDI/TOF MS was used to ascertain the kinetics of platinum-RNA adduct formation using BCL-2 siRNA that was incubated with a 10-fold excess of various platinum(II) or platinum(IV) species. […]

The test system of assay [3] is MCF-7 cells. The experiment in a line: Intracellular platinum uptake. The assay is classed as cell-based. How it is done:
FIG. 19A is a bar graph showing platinum uptake (μg Pt/cell) for various compositions. […] Experiments were performed in triplicate. […] IC50 values were derived from three independent experiments each with four technical replicates per condition.
MCF-7 cells were seeded in 12-well plates at a density of 10^5 cells per well and incubated overnight in 1 mL of DMEM containing 10% FBS. […]

Assay [4] relates to MCF-7 cells. Kind of assay: Pt-DNA adducts in cells. The assay is classed as cell-based. Conditions: 24 h after treatment. How it is done: FIG. 19B is a bar graph showing the total number of Pt-DNA adducts (pg Pt/μg DNA) as assessed after 24 h of incubation with each treatment group, as defined in the description of FIG. 19A. DNA was isolated after cellular lysis and the content of DNA-bound Pt was determined by ICP-MS. Experiments were performed in triplicate. […] IC50 values were derived from three independent experiments each with four technical replicates per condition. […] In all cases, significance is defined as *p<0.05, **p<0.01, and ***p<0.001.
Atomic absorption spectroscopy (generation 8.0, Perkin Elmer) was used to study the kinetics of siRNA platination and to determine the platinum content in all micellar formulations. Inductively coupled plasma mass spectrometry (ICP-MS, Xseries II, Thermo scientific, USA) was used for quantitative determination of trace levels of platinum in cancer cells and to quantify Pt-DNA adduct formation. Sizes and distributions of micelles were determined by dynamic light scattering (DLS) with a vertically polarized He—Ne laser (DAWN EOS, Wyatt Technology, USA). The size and morphologies of the micelles very visualized using a JEOL JEM-1011 electron microscope. Particle size and zeta potential measurements were conducted on a Malvern Zetasizer Nano ZS90. Micelles were prepared by directly dissolving various modified triblock copolymers in water at 0.5 mg/mL.

Assay [5] has as its system MCF-7 cells. Kind of assay: MTT cytotoxicity. The format is cell-based. As to conditions: platinum concentration, siRNA 100 nM. How it is done: In vitro Cytotoxicity Measurements. MCF-7 cells were seeded in 96-well plates at a density of 1×10^4 cells/well. 100 μL of DMEM supplemented with 10% FBS were added to each well and the cells were incubated at 37° C. for 24 h. […] All experiments were conducted in triplicate.

A further assay relates to OVCAR4 cells. Kind of assay: MTT cytotoxicity. The assay is classed as cell-based. Conditions: platinum concentration.
Another assay relates to A2780 cells. Kind of assay: MTT cytotoxicity. As to conditions: platinum concentration. The assay is classed as cell-based.
The subject of the next assay is A2780DDP cells. The experiment in a line: MTT cytotoxicity. The assay is classed as cell-based. Conditions: platinum concentration.

Procedure for 5′-GMP: The binding kinetics of 5′-GMP to each platinum species were determined by measuring the relative amounts of free and Pt-bound 5′-GMP at each time point, integrating the ratio of the ^1HNMR peaks at 8.5 ppm to 8.09 ppm.

Turning to `N.N.[Cl][Pt][Cl]` [CisPt(II), cisplatin], the “formation of Pt(NH3)2(5′-GMP)2 adducts” value in the assay on 5′-GMP (data not shown) was “Similarly rapid formation and time dependent increases”. In addition, the “time at which Pt-siRNA adducts could be detected” value in the assay on BCL-2 siRNA [1] is not above 30 m.

As a reminder, the IC50 is the concentration at which inhibition is half-maximal. Lower therefore signals greater potency in that assay. Regarding `O=C1[O][Pt]2([NH][C@@H]3CCCC[C@H]3[NH]2)[O]C1=O` [OxaPt(II), Oxaliplatin], in the assay on 5′-GMP (30 m incubation, 10 mM 5′-GMP, 5 mM Pt, 37° C.), the “DACHPt(5′-GMP)2 adducts, share of the 5′-GMP pool” value was “approximately 10%”. Moreover, the “DACHPt(5′-GMP)2 adducts, share of the total 5′-GMP pool” value in the assay on 5′-GMP (over the first 6 h, 10 mM 5′-GMP, 5 mM Pt, 37° C.) is on record as more than 40%. Further, in the assay on BCL-2 siRNA [1], the “time at which Pt-siRNA adducts could be detected” value is reported as 1 h. The siRNA transcripts platinated in the assay with BCL-2 siRNA [2] was more than 50%. The “Platinum uptake 1 h” value in the assay on MCF-7 cells [3] (1 h) is 369 ± 24 pg Pt/cell (×10^−4). For the same molecule, in the assay with MCF-7 cells [3] (4 h), the “Platinum uptake 4 h” value is listed as 535 ± 16 pg Pt/cell (×10^−4). Moreover, the “Pt-DNA adducts After 24 h” value in the assay on MCF-7 cells [4] was determined as 41.10 ± 9.84 ng Pt/μg DNA. For the same molecule, the IC50 stood at 23.1 ± 0.25 µM in the assay on MCF-7 cells [5], 15.5 ± 0.5 µM in the assay with OVCAR4 cells, 2.9 ± 0.28 µM in the assay with A2780 cells and 18.8 ± 0.99 µM with A2780DDP cells.
